This is an account of results in ChEMBL document CHEMBL1177707 (J Med Chem, 2010).

Each structure is given as a SMILES string.

The target of assay [1] is Inosine-5'-monophosphate dehydrogenase 2 (Homo sapiens, UniProt P12268). Put plainly: Inhibition of human IMPDH2.
For assay [2], the target named is Inosine-5'-monophosphate dehydrogenase 1 (Homo sapiens, UniProt P20839). Put plainly: Inhibition of human IMPDH1.
Assay [3] can be described thus: Inhibition of N-terminal His-tagged Mycobacterium tuberculosis H37Rv IMPDH. The following applies: read-out: Ki(app).

Sequence of Inosine-5'-monophosphate dehydrogenase 1 (P20839 whole entry): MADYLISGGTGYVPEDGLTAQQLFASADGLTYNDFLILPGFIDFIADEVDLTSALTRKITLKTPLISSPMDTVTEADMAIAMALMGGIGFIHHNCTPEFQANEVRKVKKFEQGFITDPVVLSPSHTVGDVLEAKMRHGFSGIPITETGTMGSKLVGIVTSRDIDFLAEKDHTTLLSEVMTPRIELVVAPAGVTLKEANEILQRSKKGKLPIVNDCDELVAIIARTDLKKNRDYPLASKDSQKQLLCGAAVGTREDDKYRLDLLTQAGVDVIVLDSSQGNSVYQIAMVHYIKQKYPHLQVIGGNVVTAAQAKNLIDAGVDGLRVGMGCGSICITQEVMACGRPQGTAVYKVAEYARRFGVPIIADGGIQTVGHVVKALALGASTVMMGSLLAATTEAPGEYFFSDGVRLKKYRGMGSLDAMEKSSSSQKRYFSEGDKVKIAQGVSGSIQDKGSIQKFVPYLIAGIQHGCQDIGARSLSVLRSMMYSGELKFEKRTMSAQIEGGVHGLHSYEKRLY

As for `COc1c(C)c2c(c(O)c1C/C=C(\C)COP(=O)(O)CP(=O)(O)OC[C@H]1O[C@@H](n3cnc4c(N)ncnc43)[C@H](O)[C@@H]1O)C(=O)OC2`, the Ki was 380 nM in assay [1] (read-out: Ki(app)), 520 nM in assay [2] (read-out: Ki(app)) and more than 100000 nM in assay [3].
For `COc1c(C)c2c(c(O)c1CCNCc1cn(C[C@H]3O[C@@H](n4cnc5c(N)ncnc54)[C@H](O)[C@@H]3O)nn1)C(=O)OC2`, the Ki is 2200 nM in assay [1] (read-out: Ki), 14000 nM in assay [2] (read-out: Ki) and more than 100000 nM in assay [3].
For `COc1c(C)c2c(c(O)c1CCn1cc(COC[C@H]3O[C@@H](n4cnc5c(N)ncnc54)[C@H](O)[C@@H]3O)nn1)C(=O)OC2`, the results for the Ki in assay [1] (read-out: Ki), in assay [2] (read-out: Ki) and in assay [3] were 200 nM, 1500 nM and more than 100000 nM, respectively.
`COc1c(C)c2c(c(O)c1C/C=C(\C)Cn1cc(COC[C@H]3O[C@@H](n4cnc5c(N)ncnc54)[C@H](O)[C@@H]3O)nn1)C(=O)OC2`: the Ki in assay [2] (read-out: Ki) was 70 nM.
For the compound `C#Cc1nc(N)c2ncn([C@@H]3O[C@H](CNS(=O)(=O)CS(=O)(=O)NCCc4c(O)c5c(c(C)c4OC)COC5=O)[C@@H](O)[C@H]3O)c2n1`, the Ki in assay [3] was more than 100000 nM.
On to `COc1c(C)c2c(c(O)c1CCOP(=O)(O)CP(=O)(O)OC[C@H]1O[C@@H](n3cnc4c(N)nc(-c5ccccc5)nc43)[C@H](O)[C@@H]1O)C(=O)OC2`, for which the Ki in assay [3] is more than 100000 nM.
Regarding `CCc1nc(N)c2ncn([C@@H]3O[C@H](CNS(=O)(=O)CS(=O)(=O)NCCc4c(O)c5c(c(C)c4OC)COC5=O)[C@@H](O)[C@H]3O)c2n1`, the Ki in assay [3] was more than 100000 nM.
With `COc1c(C)c2c(c(O)c1CCNS(=O)(=O)CS(=O)(=O)NC[C@H]1O[C@@H](n3cnc4c(N)nc(-c5ccccc5)nc43)[C@H](O)[C@@H]1O)C(=O)OC2`, the Ki in assay [3] was more than 100000 nM.
As for `COc1c(C)c2c(c(O)c1C/C=C(\C)CCC(=O)O)C(=O)OC2` [MYCOPHENOLIC ACID], in assay [3], the Ki came out at 62000 nM.
